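Assay format: 96-well plates, 48-hour exposure. At the TGI there is no net growth.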
How the values were obtained:
Assay in all cases: NCI-60 cell line screen, 48 h
[1] = test system: M19-MEL melanoma
[2] = test system: HCT-15 colon
[3] = test system: HOP-92 NSCLC
[4] = test system: LOX IMVI melanoma
[5] = test system: DMS 114 small cell lung
[6] = test system: HT29 colon
[7] = test system: LXFL 529 NSCLC
[8] = test system: DMS 273 small cell lung
[9] = test system: OVCAR-4 ovarian
[10] = test system: A498 renal
[11] = test system: COLO 205 colon
[12] = test system: NCI-H226 lung
[13] = test system: KM12 colon
[14] = test system: SNB-75 CNS
[15] = test system: PC-3 prostate
[16] = test system: BT-549 breast

Measured: TGI

OCC12C=CC(C1)c1ccccc12 (stereo unspecified)
not listed: [13] | [14] | [15] | [16]
> 100 µM: all other assays above

O=S(Cc1ccccc1)c1nc2ccccc2nc1-c1cccs1 (stereo unspecified)
22.6 µM: [1]
34.5 µM: [13]
16.7 µM: [12]
36.1 µM: [14]
29.8 µM: [3]
27.1 µM: [6]
12.8 µM: [7]
5.91 µM: [5]
24.6 µM: [9]
22.7 µM: [8]
25.5 µM: [2]
42.7 µM: [11]

CS(=O)(=O)C(C#N)c1nc2ccccc2nc1Cl (stereo unspecified)
> 58.2 µM: [13]
> 100 µM: all other assays above

CC1(C)OCN(c2ccc(N3CCOCC3)cc2)Cn2c1nc1ccccc12
not listed: [15] | [16]
> 100 µM: all other assays above

CN(C)/C=C/C(=CC=[N+](C)C)/C=C/N(C)C
> 100 µM: [3] | [13] | [4] | [6] | [7] | [8] | [9] | [10] | [12]

CCN1C[C@]2(C)CC[C@H](O)C34C1C(C[C@@H]32)[C@@]1(O)CC[C@H]2C[C@@H]4[C@@H]1[C@H]2O
not listed: [10] | [12] | [15] | [16]
> 100 µM: all other assays above

CCC1=CCN(c2cc(C)ccn2)OC1c1ccc(OC)cc1 (stereo unspecified)
91.6 µM: [5]
50.2 µM: [6]
33.6 µM: [11]
not listed: [3] | [8] | [10] | [15] | [16]
> 100 µM: all other assays above

COc1ccc2nc3cc(Cl)ccc3c(Sc3ccc([N+](=O)[O-])cc3C)c2c1
46.1 µM: [11]
not listed: [6] | [15] | [16]
> 100 µM: all other assays above

Cc1ccc2c(ccc(/C=C/c3ccc(O)c4ncccc34)[n+]2C)c1
> 29 µM: [16]
17.2 µM: [8]
31.1 µM: [3]
39.9 µM: [11]
33.6 µM: [9]
22.6 µM: [1]
26.5 µM: [10]
33.3 µM: [13]
43.7 µM: [14]
> 49.8 µM: [15]
> 100 µM: [2]
30.2 µM: [4]
19.7 µM: [7]
46.5 µM: [12]
4.28 µM: [5]
27.7 µM: [6]

CCC(CC)NC1=C(NC(C)=O)C(=O)c2ccccc2C1=O
not listed: [5] | [10] | [15] | [16]
> 50 µM: all other assays above

CCOC1C(Br)Cn2c(=O)c3cc4ccccc4cc3c(=O)n2C1C (stereo unspecified)
78.7 µM: [10]
not listed: [15] | [16]
> 100 µM: all other assays above

From PubChem BioAssay (NCI)
